{
  "source": "patent US8318813B2",
  "about": "“Method of treating binge eating disorder” (LCS Group, LLC, priority 2007, dated 2012)",
  "key": {"[1]": {"tested_on": "patient with Binge Eating Disorder, Medication-Induced Cognitive Problems, and Fatigue", "experiment": "Case report Example 5: VYVANSE added to existing regimen", "format": "in vivo, human", "source_text": "The patient previously has been treated with therapy and has had multiple prior medication trials, either discontinued due to lack of efficacy or side effects, including ZOLOFT (sertraline), CELEXA (citalopram), PROZAC (fluoxetine), LEXAPRO (escitalopram), WELLBUTRIN SR (bupropion HCl), NORTRIPTYLINE, ATIVAN (lorazepam), ABILIFY (aripiprazole), RISPERDAL (risperidone), SEROQUEL (quetiapine), LYRICA (pregabalin), and RITALIN (methylphenidate). Selective serotonin reuptake inhibitors exacerbated binge eating symptoms and caused problematic weight gain. For treatment of depression with comorbid anxiety, binge-eating, and weight-gain related to binge eating symptoms, the patient was maintained on a medication regimen that included TOPAMAX (topiramate) 175 mg in the morning and 200 mg at night, LAMICTAL (lamotrigine) 200 mg in the morning, CYTOMEL (liothyronine) 25 mcg per day, KLONOPIN (clonazepam) 0.25 mg at bed time, and NEURONTIN (gabapentin) 600 mg at bedtime. […] Given prior poor response to a number of different classes of medication trials, off-label use of VYVANSE was initiated at 30 mg each morning to target a constellation of symptoms, including symptoms of major depression, binge-eating disorder, fatigue, and concentration problems. VYVANSE was maintained at 30 mg each morning for weeks before being discontinued due to adverse effects. […] However, there appeared to be no benefit on the patient's depressed mood, amotivation, and feelings of hopelessness.\nThis case exemplifies the clinical benefit of lisdexamfetamine dimesylate on binge-eating symptoms and potentially on weight-gain related to binging (body weight was not obtained), though longer-term treatment was cut short by adverse effects at the 30 mg dosage form. Given the number of failed prior trials, off-label use of VYVANSE was clinically indicated, especially given the severity of binge eating behavior."}, "[2]": {"tested_on": "Patient with ADHD, Generalized Anxiety Disorder, and Obsessive-Compulsive Behavior", "experiment": "Case report Example 3: VYVANSE", "format": "in vivo, human", "source_text": "The patient is a non-geriatric adult diagnosed with a history of ADHD, inattentive type, and comorbid Generalized Anxiety Disorder, though had no prior treatment. Presenting ADHD symptoms included difficulty sustaining attention and attending to details, difficulty organizing tasks with tendencies toward avoidance, distractibility, and problems finishing tasks that have been initiated. Symptoms of Generalized Anxiety Disorder included frequent and intense ruminative worrying, feeling overly fatigued, muscle tension and intermittent problems with sleep. […] The patient was started on VYVANSE 30 mg in the morning, along with TRAZODONE 50 mg at bedtime. VYVANSE was maintained at 30 mg once daily in the morning for one week, followed by one week at 50 mg per day, and then 70 mg per day, taken in the morning. […] The patient maintained treatment on VYVANSE at 70 mg per day for 10 weeks; TRAZODONE 50 mg at bedtime was discontinued after 4 weeks as sleep patterns had sufficiently normalized. […] The patient previously felt little or no control around such worrying, ruminative behavior and speculated that it caused significant mental and even physical fatigue.\nStimulant medications have traditionally been associated with causing or worsening anxiety symptoms (for instance, being ‘anxiogenic’)."}, "[3]": {"tested_on": "Patient with Comorbid Depressive Disorders and Binge Eating Behavior", "experiment": "Case report Example 4: VYVANSE", "format": "in vivo, human", "source_text": "The patient also endorsed symptoms of ADHD, inattentive type, primarily around problems with organizing tasks, procrastination of work activities, and problems completing projects, though such ‘inattention’ symptoms were considered as clinically less detrimental than feeling chronically depressed, lacking motivation or interest in work or social activities, feeling fatigued and sometimes guilty, and having gained weight over several years due to ‘emotional eating’ behavior. The patient had received therapy in the past to address depressive episodes and associated life stressors, with modest benefit. The patient also described a history of ‘emotional eating’ that could occur at any time of day though more often in the late afternoons or early evenings. Such ‘emotional eating’ was often triggered by stressful situations or events, accompanied by an urge to eat, and would typically lead to excess consumption of carbohydrate-based foods. In recent years, the patient reported having gained over 10% body weight and noted a general trend toward increasing emotional eating and binging behavior. More severe binges occurred at least several times per month over a stretch of several years, though were much less common than ‘emotional eating’ that was milder in nature and occurred nearly daily. […] The patient was maintained on VYVANSE for 10 weeks at 50 mg per day. […] Symptoms of emotional eating were improved in the evenings as well, with less than one per week on average as compared to most evenings previously. […] The organization and execution of work-related tasks improved during the course of treatment as well.\nThe patient also began a trend of weight loss on account of decreased emotional eating and binging. The patient's ADHD was also clinically relevant, which is the primary reason VYVANSE was chosen as the initial medication treatment, though it was not the reason for which evaluation and treatment was sought and of secondary importance with regard to symptoms causing the patient difficulty and concern. […] Binge-eating behavior, largely taking the form of ‘self-soothing’ eating activity with potentially serious risks in this patient insofar as it was causing steady increased weight gain to the point of obesity), responded remarkably well to treatment with VYVANSE."}, "[4]": {"tested_on": "Patient with Comorbid Generalized Anxiety Disorder, Major Depression, and ADHD", "experiment": "Case report Patient 6: VYVANSE added to PAXIL", "procedure": "The patient was maintained on PAXIL (paroxetine) 30 mg per day following a significant comorbid major depressive episode associated with anxiety symptoms, and a history consistent with Generalized Anxiety Disorder. […] However, after beginning a new job with more challenging responsibilities, the patient was unable to compensate for such deficits and a pattern of obsessive ruminations emerged, often involving work. In addition to perseverative and obsessive thinking, the patient experienced heightened anxiety and mild depressive symptoms, including fatigue, low mood, and amotivation, especially while at work. After discussing medication options and side effect concerns, VYVANSE was initiated to address underlying ADHD symptoms, which were felt to drive the patient's perseverative thinking, anxious ruminations, and low mood. […] PAXIL was maintained at 30 mg per day."}, "[5]": {"conditions": "once per day dosing; cited from earlier work"}, "[6]": {"tested_on": "Patient with Binge Eating Disorder and Major Depressive Disorders", "experiment": "Case report Patient 2: lisdexamfetamine dimesylate monotherapy"}, "[7]": {"tested_on": "Patient with Major Depressive Disorders and Binge Eating Disorder", "experiment": "Case report Patient 1: lisdexamfetamine dimesylate added to ZOLOFT"}},
  "data": [
    {"smiles": "CC1(C)O[C@@H]2[C@@H](CO[C@@]3(COS(N)(=O)=O)OC(C)(C)O[C@@H]23)O1", "note": "[TOPAMAX, topiramate]", "values": [
      {"measurement": "binge eating behavior", "setting": "[1]; TOPAMAX 175 mg in the morning and 200 mg at night, clinically insufficient", "value": "helped reduce"},
      {"measurement": "tolerability", "setting": "[1]; in vivo", "value": "poorly tolerated at higher doses due to cognitive side effects"}
    ]},
    {"smiles": "CS(=O)(=O)O.CS(=O)(=O)O.C[C@@H](Cc1ccccc1)NC(=O)[C@@H](N)CCCCN", "note": "[lisdexamfetamine dimesylate, (2S)-2,6-diamino-N-[(1S)-1-methyl-2-phenylethyl]hexanamide dimethanesulfonate]", "values": [
      {"measurement": "compulsive ruminating and worrying", "setting": "[2]; 70 mg per day", "value": "highly significant improvement"},
      {"measurement": "ability to sustain attention and attend to details, organize and finish projects, process information", "setting": "[2]; 70 mg per day, compared to previous baseline function", "value": "significantly enhanced"},
      {"measurement": "inattention symptoms", "setting": "[2]; after 10 weeks at 70 mg per day", "value": "only mildly affected"},
      {"measurement": "'wear off' during treatment of Generalized Anxiety Disorder symptoms", "setting": "[2]; for the duration of the day", "value": "no problematic ‘wear off’"},
      {"measurement": "ADHD and Generalized Anxiety Disorder symptoms", "setting": "[2]; within the first week, 30 mg in the morning with TRAZODONE 50 mg at bedtime", "value": "positive effect"},
      {"measurement": "adverse effects", "setting": "[3]; 30 mg per day for two weeks, increased to 50 mg per day", "value": "without any adverse effects"},
      {"measurement": "emotional eating behavior in the afternoon", "setting": "[3]; 50 mg daily", "value": "abrupt and sustained cessation"},
      {"measurement": "depressive symptoms", "setting": "[3]; 10 weeks at 50 mg per day", "value": "significant amelioration"},
      {"measurement": "major binges", "setting": "[3]; at any point while taking VYVANSE, before at least several times per month", "value": "no reported major binges"},
      {"measurement": "organization and execution of work-related tasks", "setting": "[3]; during the course of treatment", "value": "improved"},
      {"measurement": "emotional eating in the evenings", "setting": "[3]; on average, compared to most evenings previously", "value": "less than one"},
      {"measurement": "weight lost", "setting": "[3]; over 2½ months of treatment", "value": "6-7 pounds"},
      {"measurement": "absolute binges per week", "setting": "[1]; 30 mg each morning", "value": "fewer"},
      {"measurement": "binge-eating days per week", "setting": "[1]; 30 mg each morning", "value": "fewer"},
      {"measurement": "depressed mood, amotivation, and feelings of hopelessness", "setting": "[1]; 30 mg each morning", "value": "no benefit"},
      {"measurement": "fatigue and concentration throughout the day", "setting": "[1]; 30 mg each morning", "value": "improvement"},
      {"measurement": "urge to binge", "setting": "[1]; 30 mg each morning, during the time of treatment", "value": "notably reduced"},
      {"measurement": "adverse effects leading to discontinuation", "setting": "[1]; 30 mg each morning, with TOPAMAX, LAMICTAL, CYTOMEL, KLONOPIN, NEURONTIN", "value": "excessive appetite suppression and visual blurring"},
      {"measurement": "adverse effect", "setting": "[4]; 30 mg per day for one week, titrated to 50 mg per day", "value": "without adverse effect"},
      {"measurement": "ADHD, Generalized Anxiety Disorder, and Major Depressive Disorder symptoms", "setting": "[4]; ensuing 9 weeks, with PAXIL 30 mg per day", "value": "improvement"},
      {"measurement": "weight loss", "setting": "[4]; over 2 months of treatment, VYVANSE 50 mg per day with PAXIL 30 mg per day", "value": "4-5%"},
      {"measurement": "mood, motivation and energy", "setting": "[4]; with PAXIL 30 mg per day", "value": "improved"},
      {"measurement": "worrying", "setting": "[4]; with PAXIL 30 mg per day", "value": "substantial reduction"},
      {"measurement": "time after administration for which significant effects have been demonstrated", "setting": "[5]", "value": "up to 12 hours"},
      {"measurement": "ADHD symptoms", "setting": "[6]; Patient 2", "value": "as effective as […] XR"},
      {"measurement": "triglyceride levels", "setting": "[6]; end of 5 weeks of treatment, 271 mg/dL prior to treatment", "value": 160, "unit": "mg/dL"},
      {"measurement": "binging episodes", "setting": "[6]; first 2 weeks of treatment, before at least two days per week", "value": "only once"},
      {"measurement": "depressive symptoms (depressed mood, interest level, sleep quality, physical fatigue)", "setting": "[6]; monotherapy, about 10 weeks", "value": "overall improvement"},
      {"measurement": "total body weight lost", "setting": "[6]; obese patient, about 10 weeks on lisdexamfetamine dimesylate (70 mg from day 3)", "value": "approximately 7%"},
      {"measurement": "binging episodes", "setting": "[6]; subsequent 8 weeks of treatment", "value": "stopped entirely"},
      {"measurement": "depressive symptoms", "setting": "[7]; 8 weeks of maintenance on 70 mg in addition to 100 mg ZOLOFT (sertraline)", "value": "full remission"},
      {"measurement": "binging days", "setting": "[7]; for the 8 weeks at 70 mg daily along with 100 mg ZOLOFT", "value": "no more than 3"},
      {"measurement": "reduction of binging eating days per month", "setting": "[7]; from approximately 12 or more to no more than 3 per month", "value": "approximately 75%"},
      {"measurement": "binge eating days per month", "setting": "[7]; while taking lisdexamfetamine dimesylate, before approximately 12 or more per month", "value": "no more than 3 per month"}
    ]},
    {"smiles": "Fc1ccc([C@@H]2CCNC[C@H]2COc2ccc3c(c2)OCO3)cc1", "note": "[PAXIL, paroxetine]", "values": [
      {"measurement": "depressive and anxiety symptoms", "setting": "[4]; PAXIL 30 mg per day", "value": "rapidly stabilized"}
    ]}
  ]
}
